Assay [1] has as its target T1, pyrene-conjugated actin (Oryctolagus cuniculus, UniProt P68135).
T1 construct: purchased Cytoskeleton, Denver, Colo
The experiment in a line: Pyrene actin polymerization assay. The conditions noted are these: for inhibition at 0.1 µM: 100 nM, read-out: Actin polymerization inhibition (%) 100 nM; for inhibition at 0.1 µM / inhibition at 1 µM: compared to vehicle control (DMSO); for inhibition at 1 µM: read-out: Actin polymerization inhibition (%) 1 μM; for IC50: mean ± SEM, triplicate. The format is biochemical. How it is done:
An actin polymerization kit was used to assess the direct actin-binding activity of each analogue at two concentrations: 100 nM and 1 μM. This kit is based on the enhanced fluorescence of pyrene-conjugated actin that occurs during polymerization. When pyrene-G-actin (monomer) forms pyrene-F-actin, fluorescence is enhanced. The enhanced fluorescence is used to follow polymerization over time. Table 2 lists activities as the percentage of actin polymerization inhibition, compared to the negative vehicle control (DMSO), along with calculated IC50.
Pyrene-Actin Polymerization Assays. Actin polymerization assays were performed in accordance with the manufacturer's instructions (Cytoskeleton, Denver, Colo.). Briefly, […] final concentration of monomeric actin (1:10 pyrene labeled) was incubated on ice for 10 min with one of various concentrations of one of the latrunculin derivatives. Samples were then equilibrated 10 min in an ELISA plate reader (BioTek, VT), after which polymerization was induced by adding KCl, MgCl2, and ATP. Compounds 1-14 were tested at 0.1, 0.5, 1.0, and 10 μM. The IC50 for each compound was calculated using GraphPad Prism 5.0.
Pyrene-actin polymerization assays. Actin polymerization inhibitory activity is assessed using the Cytoskeleton Actin Polymerization kit (Cytoskeleton, Denver, Colo.). Briefly, […] (final concentration) of monomeric actin (1:10 pyrene labeled) is incubated on ice for 10 min with one of various concentrations of the test latrunculin compound. Samples are equilibrated 10 min in an ELISA plate reader (BioTek, VT), after which polymerization is induced by adding KCl, MgCl2, and ATP. Compounds are tested at 0.1, 0.5, 1.0, and 10 μM. The IC50 for each compound is calculated using GraphPad Prism 5.0.

Assay [2] concerns MDA-MB-231 cells. The experiment in a line: Cultrex BME cell invasion assay. The class given is cell-based, human. The conditions noted are these: for fold more active against cell invasion than latrunculin A (compound 1): 0.5 μM. How it is done:
The anti-invasive activities of compounds 1-14 were measured using a 96 well basement membrane extract (BME) cell invasion assay kit against the highly metastatic MDA-MB-231 cells. This assay employs a simplified Boyden Chamber with a polyethylene terephthalate membrane (8 μm pore size). Cell invasion was quantified using calcein-acetomethylester (calcein-AM). Cells internalize calcein-AM; intracellular esterases then cleave the acetomethylester moiety to generate free calcein. Free calcein fluoresces brightly. This fluorescence may be used to quantify the number of cells that have invaded across the BME. To correlate the anti-invasive activities of the latrunculin A derivatives with their actin-disrupting activities, compounds 1-14 were each tested at non-toxic concentrations. […] Accordingly, all compounds were tested at 0.1, 0.5, and 1.0 μM. Compound 3 killed 17% of MDA-MB-231 cells at 1.0 μM, while the same dose of compound 3 inhibited 95% of MDA-MB-231 cells' invasion. […] The anti-invasive activities of compounds 1-14 are attributed primarily to the inhibition of actin polymerization, not to cell death per se.
Cultrex® Cell Invasion Assay. Anti-invasive activities were measured using Trevigen's Cultrex® Cell Invasion Assay as described in K. Tamilarasan et al., BMC Cell Biol. 2006, 7, 17-30; and P. Borghesani et al., Development. 2002, 6, 1435-1442. About 50 μL of basement membrane extract (BME) coat was added to each well. After incubation for 4 h at 37° C. under 5% CO2, 50,000 MDA-MB-231 cells in 50 μL of serum free RPMI medium were added to each well in the top chamber, along with the test compound at one of several concentrations (0.1, 0.5, 1 μM). About 150 μL of RPMI medium was added to the lower chamber in 10% FBS and penicillin/streptomycin, using fibronectin ([…]) and N-formyl-met-leu-phe (10 nM) as chemoattractants. Cells were allowed to migrate to the lower chamber at 37° C. under 5% CO2. After 24 h, the top and bottom chambers were aspirated and washed with the washing buffer that had been supplied with the kit. About 100 μL of Cell Dissociation Solution/Calcein-AM solution was added to the bottom chamber, and the cells were incubated at 37° C. under CO2 for 1 h. Briefly, the cells internalize calcein-AM, and then the intracellular esterases cleave the AM moiety to generate free calcein. […] The number of cells that had invaded through the BME coat was calculated using a standard curve.

Assay [3] relates to MDA-MB-231. Kind of assay: MTT proliferation assay, MDA-MB-231. The format is cell-based, human. The conditions noted are these: for IC50: Homo sapiens, MDA-MB-231, MTT, 72 h, mean ± SEM, read-out: IC50 (μM) MDA-MB-231. An excerpt: (§1) The antiproliferative and anti-invasive activities of compounds 1-14 were quantified using MTT and cell invasion assay kits, respectively. Latrunculin A (compound 1) was used as a positive control in all biological assays, because it is known to be an actin polymerization inhibitor, with cytotoxic, antiproliferative, and anti-invasive activities. The 3-[4,5-dimethylthiazol-2-yl]-2,5-diphenyl tetrazolium bromide (MTT) assay selectively detects living cells in a quantitative, colorimetric fashion, based on a living cell's ability to reduce MTT to an insoluble, purple formazan dye. The MTT assay is routinely used to assess cytotoxicity and proliferation inhibition activities. The antiproliferative activities of compounds 1-14 were measured against two human mammary gland adenocarcinoma cell lines, MCF7 and MDA-MB-231, and against human prostate cancer cells PC-3 at five different doses (0.1, 0.5, 1, 10, and 50 μM). While many of the semisynthetic latrunculins had similar activity levels, some had greater activity than compound 1. […] Although the MDA-MB-231 cells were more resistant than MCF7 against most latrunculin derivatives tested, compound 14 had potent activity against both cell lines.
(§2) MTT Proliferation Assay. The growth of MCF7, MDA-MB-231, and PC-3 cancer cell lines was measured using an MTT kit (TACS™, TREVIGEN®, Inc.). Exponentially growing cells were plated in a 96-well plate at a density of 8×10^3 cells per well, and allowed to attach for 24 h. Complete growth medium was then replaced with 100 μL of RPMI serum-free medium containing various concentrations (50, 10, 1, 0.5, 0.1 μM) of the particular test compound. Culture continued at 37° C. under 5% CO2. After 72 h of culture, the cells were treated with MTT solution (10 μL/well) at 37° C. for 4 h. The color reaction was stopped by adding solubilization/stop solution (100 μL/well). Incubation continued at 37° C. continued to completely dissolve the formazan dye product. Absorbance of the samples was determined at 570 nm with an ELISA plate reader (BioTek, VT). The number of cells per well was calculated against a standard curve that had been prepared by plating various concentrations of cells, as determined by hemocytometer, at the start of each experiment. IC50 for each compound was calculated using a nonlinear regression curve fit of log concentration versus the number of cells/well, using GraphPad Prism 5.0 (GraphPad Software, La Jolla, Calif.).

The test system of assay [4] is MCF7. The experiment in a line: MTT proliferation assay, MCF7. The conditions noted are these: for IC50: Homo sapiens, MCF7, MTT, 72 h, mean ± SEM, read-out: IC50 (μM) MCF7. The class given is cell-based, human.
Description: as §1, §2

Assay [5] deals with PC-3. The experiment in a line: MTT proliferation assay, PC-3. The class given is cell-based, human. The conditions noted are these: for IC50: Homo sapiens, PC-3, MTT, 72 h, read-out: IC50 (μM) PC-3.
Description: as §1, §2

Assay [6] concerns breast, CNS, colon, lung, melanoma, ovarian, and renal cancer cells. Kind of assay: Antiproliferative testing against 60 cell lines (NSC compounds). The format is cell-based.
Assay [7] relates to HeLa cells. Kind of assay: HeLa cell G2/M assays. The format is cell-based. The conditions noted are these: less active than compound 11. An excerpt: This assay measures HeLa cell proliferation, apoptosis, DNA content and condensation, cyclin B, and phosphor-histone H3.
Assay [8] relates to microvessel density marker CD31 in endothelial colony forming cells (ECFCs). The experiment in a line: Angiogenesis inhibition assay (CD31 in ECFCs). The format is cell-based. How it is done:
Effects on Angiogenesis. Angiogenesis inhibition assays were conducted using endothelial colony forming cells (ECFCs). The microvessel density marker CD31 was quantified using confocal laser scanning microscopy and immunohistochemistry.

The test system of assay [9] is β-catenin in C2C12 cells. The experiment in a line: Wnt/β-catenin signaling, β-catenin levels in C2C12 cells. The format is cell-based. From the text:
(§3) Effects on Wnt/β-catenin. […] These two compounds affected both alkaline phosphatase and β-catenin levels in C2C12 cells.

In assay [10] the test system is array of kinases. The experiment in a line: Kinase profiling. The class given is binding. The settings on record: any kinase tested. As to the method: Latrunculins B and H (compounds 20 and 14, respectively) were tested in a panel of assays including ApoE secretion, anti-angiogenesis, G2/M, Wnt pathway, insulin secretion, and an array of kinase profiling. The G2/M assays include HeLa cell proliferation, apoptosis, DNA content, and condensation, cyclin B, and phosphor-histone H3. […] Alkaline phosphatases may perhaps be a target of the anti-invasive latrunculin 11.

Assay [11] has as its system alkaline phosphatase in C2C12 cells. The experiment in a line: Alkaline phosphatase in C2C12 cells (Wnt pathway). The format is cell-based.
Description: as §3

The subject of assay [12] is alkaline phosphatase in HuADSC cells. Kind of assay: Alkaline phosphatase in HuADSC cells. The class given is cell-based.
Assay [13] concerns prostate cancer cells PC-3M-CT+. The conditions noted are these: 100 nM dose; without cytotoxicity; cited from earlier work.

As to `C/C1=C/C(=O)O[C@@H]2C[C@@H](CC[C@H](C)/C=C\C=C\CC1)O[C@@](OCCc1ccccc1)([C@@H]1CSC(=O)N1)C2` [Compound 3, 17-O-Phenylethyllatrunculin A], the inhibition at 0.1 µM in [1] is 31%. The inhibition at 1 µM worked out at 94% in [1] and 95% in assay [2] (Homo sapiens, MDA-MB-231, 1.0 μM). Also, the IC50 in [1] is 184 ± 48 nM; in assay [3] it was 2.71 ± 0.52 µM; in [4] it was 0.1 ± 0.07 µM; in assay [5], 1.22 µM. Besides, the “fold more active against cell invasion than latrunculin A (compound 1)” value in assay [2] stood at 3.3 fold. Moreover, in [3] (1.0 μM), the MDA-MB-231 cells killed is 17%. Moreover, the “fold increase in activity against MCF7 versus compound 1” value in assay [4] (relative to compound 1) is on record as 4.8 fold. For the same compound, the “fold increase in activity against PC-3 versus compound 1” value in [5] (relative to compound 1) was found to be 3.2 fold. In assay [6] (dose of 10 μM), the “number of the 60 cell lines tested with antiproliferative activity” value worked out at 18. In assay [6] (five-points dose-response, range over active cell lines), the log10GI50 was −7.02 to −7.90.

On to `C/C1=C/C(=O)O[C@@H]2C[C@@H](CC[C@H](C)/C=C\C=C\CC1)O[C@@](O)([C@@H]1CSC(=O)N1Cc1ccccc1)C2` [Compound 13, N-Benzyllatrunculin A], for which the inhibition at 0.1 µM in assay [1] came to 24%. In [1], the inhibition at 1 µM turned out to be 64%. The IC50 in assay [1] stood at 445 ± 79 nM; in [3], 2.72 µM; in [4], 0.63 µM; in [5], 3.8 µM. Also, the “fold more active against cell invasion than latrunculin A (compound 1)” value in assay [2] came out at 3.1 fold.

For `C/C1=C/C(=O)O[C@@H]2C[C@@H](CC[C@H](C)/C=C\CC1)O[C@@](O)([C@@H]1CSC(=O)N1)C2` [Compound 20, latrunculin B], the “activity in G2_M assays compared with nocodazole” value in assay [7] is “greater activity than did nocodazole”. For the same compound, the “inhibition of CD31 in ECFCs” value in assay [8] (2 μM) and in assay [8] (10 μM) was 100% in each case. In assay [8] (read-out: IC50 CD31 in ECFCs), the IC50 was determined as 43 nM. Also, the Wnt/β-catenin signaling entry in assay [9] was “strongly inhibited”. For the same compound, in assay [10], the affinity toward kinases result is given as “Neither compound 20 nor compound 14 showed affinity toward any kinase tested”. The EC50 is 91 nM in [11] and 141 nM in assay [12].

“latrunculin A 17-O-phenyl carbamate [Compound 18]”: the “migration of PC-3M-CT+ cells” value in assay [13] is “inhibits the migration”.
